Measured values: ChEMBL document CHEMBL5678816, “A Next-Generation TRK Kinase Inhibitor Overcomes Acquired Resistance to Prior TRK Kinase Inhibition in Patients with TRK Fusion-Positive Solid Tumors” (Cancer Discov, 2017)
Calls of active or inactive are those of the source. The calls are words filed in the database; no cut-off is given here.

Columns and labels:
BT-549 = assay: Inhibition of cell proliferation in human BT-549 cells upto 10 umol/L incubated for 72 hrs by DAPI staining based analysis; assay type: functional; details: dose <= 10.0 µmol/L
[1] = target: Tyrosine-protein kinase Blk (Homo sapiens) (UniProt P51451); assay: Inhibition of BLK (unknown origin) at 1 uM in presence of ATP relative to control; values are per cent of control
Sequence of Tyrosine-protein kinase Blk (Homo sapiens) (P51451 2-505 limits assumed): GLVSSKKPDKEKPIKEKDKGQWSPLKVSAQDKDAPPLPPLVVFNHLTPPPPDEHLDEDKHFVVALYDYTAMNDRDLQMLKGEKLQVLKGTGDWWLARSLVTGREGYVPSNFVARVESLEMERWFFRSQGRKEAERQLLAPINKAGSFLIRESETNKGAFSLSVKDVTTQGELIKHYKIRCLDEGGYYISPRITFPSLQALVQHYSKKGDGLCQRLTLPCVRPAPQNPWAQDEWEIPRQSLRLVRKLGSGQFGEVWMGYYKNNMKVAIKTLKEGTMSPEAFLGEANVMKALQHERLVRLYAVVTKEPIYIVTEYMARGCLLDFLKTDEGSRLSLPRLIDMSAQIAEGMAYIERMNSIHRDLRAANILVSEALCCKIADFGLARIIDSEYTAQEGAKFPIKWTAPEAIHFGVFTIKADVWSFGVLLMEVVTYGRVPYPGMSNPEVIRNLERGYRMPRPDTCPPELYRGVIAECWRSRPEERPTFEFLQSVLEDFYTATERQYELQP

[2] = target: Dual specificity protein kinase CLK3 (Homo sapiens) (UniProt P49761); assay: Inhibition of CLK3 (unknown origin) at 1 uM in presence of ATP relative to control; values are per cent of control
Sequence of Dual specificity protein kinase CLK3 (Homo sapiens) (P49761 whole entry, looked up): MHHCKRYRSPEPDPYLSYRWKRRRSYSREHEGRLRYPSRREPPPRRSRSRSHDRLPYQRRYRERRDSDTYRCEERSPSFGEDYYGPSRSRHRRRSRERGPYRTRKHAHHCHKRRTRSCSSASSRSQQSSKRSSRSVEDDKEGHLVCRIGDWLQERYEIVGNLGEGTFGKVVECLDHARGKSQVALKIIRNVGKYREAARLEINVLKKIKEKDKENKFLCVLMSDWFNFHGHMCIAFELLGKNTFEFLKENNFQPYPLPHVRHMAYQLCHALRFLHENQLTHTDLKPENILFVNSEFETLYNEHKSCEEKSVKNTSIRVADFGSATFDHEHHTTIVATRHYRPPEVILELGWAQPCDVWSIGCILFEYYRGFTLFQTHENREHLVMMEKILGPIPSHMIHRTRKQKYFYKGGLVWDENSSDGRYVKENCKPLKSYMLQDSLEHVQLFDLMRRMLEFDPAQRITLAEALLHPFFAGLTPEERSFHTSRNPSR

[3] = target: Mitogen-activated protein kinase 8 (Homo sapiens) (UniProt P45983); assay: Inhibition of JNK1alpha1 (unknown origin) at 1 uM in presence of ATP relative to control; values are per cent of control
[4] = target: RAC-gamma serine/threonine-protein kinase (Homo sapiens) (UniProt Q9Y243); assay: Inhibition of AKT3 (unknown origin) at 1 uM in presence of ATP relative to control; values are per cent of control
Sequence of RAC-gamma serine/threonine-protein kinase (Homo sapiens) (Q9Y243 whole entry, canonical isoform): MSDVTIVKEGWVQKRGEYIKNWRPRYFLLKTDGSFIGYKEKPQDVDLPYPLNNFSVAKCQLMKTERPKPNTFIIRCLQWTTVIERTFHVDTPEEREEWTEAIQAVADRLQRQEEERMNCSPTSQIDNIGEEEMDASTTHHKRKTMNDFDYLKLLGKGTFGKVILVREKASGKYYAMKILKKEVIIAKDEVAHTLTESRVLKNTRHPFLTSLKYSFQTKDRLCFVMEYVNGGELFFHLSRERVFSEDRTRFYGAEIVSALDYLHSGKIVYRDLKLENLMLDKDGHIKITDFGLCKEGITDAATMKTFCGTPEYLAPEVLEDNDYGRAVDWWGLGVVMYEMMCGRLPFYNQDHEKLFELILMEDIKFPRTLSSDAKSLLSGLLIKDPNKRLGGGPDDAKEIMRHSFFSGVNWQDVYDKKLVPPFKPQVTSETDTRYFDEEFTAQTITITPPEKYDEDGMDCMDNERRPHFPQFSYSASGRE

[5] = target: Casein kinase I isoform gamma-2 (Homo sapiens) (UniProt P78368); assay: Inhibition of CK1gamma2 (unknown origin) at 1 uM in presence of ATP relative to control; values are per cent of control
Sequence of Casein kinase I isoform gamma-2 (Homo sapiens) (P78368 whole entry, looked up, canonical isoform): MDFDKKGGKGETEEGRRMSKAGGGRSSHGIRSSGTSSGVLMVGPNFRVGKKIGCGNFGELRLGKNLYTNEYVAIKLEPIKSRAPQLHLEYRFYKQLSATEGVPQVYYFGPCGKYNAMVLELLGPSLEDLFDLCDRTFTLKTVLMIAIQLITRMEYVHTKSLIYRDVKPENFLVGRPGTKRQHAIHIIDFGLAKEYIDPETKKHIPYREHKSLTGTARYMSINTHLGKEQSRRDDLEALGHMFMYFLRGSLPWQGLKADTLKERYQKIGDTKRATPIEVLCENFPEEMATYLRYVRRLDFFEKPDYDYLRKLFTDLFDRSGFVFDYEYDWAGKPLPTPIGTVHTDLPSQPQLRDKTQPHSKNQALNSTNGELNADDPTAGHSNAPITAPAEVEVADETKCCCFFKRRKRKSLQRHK

[6] = target: Serine/threonine-protein kinase 17A (Homo sapiens) (UniProt Q9UEE5); assay: Inhibition of DRAK1 (unknown origin) at 1 uM in presence of ATP relative to control; values are per cent of control
Sequence of Serine/threonine-protein kinase 17A (Homo sapiens) (Q9UEE5 whole entry): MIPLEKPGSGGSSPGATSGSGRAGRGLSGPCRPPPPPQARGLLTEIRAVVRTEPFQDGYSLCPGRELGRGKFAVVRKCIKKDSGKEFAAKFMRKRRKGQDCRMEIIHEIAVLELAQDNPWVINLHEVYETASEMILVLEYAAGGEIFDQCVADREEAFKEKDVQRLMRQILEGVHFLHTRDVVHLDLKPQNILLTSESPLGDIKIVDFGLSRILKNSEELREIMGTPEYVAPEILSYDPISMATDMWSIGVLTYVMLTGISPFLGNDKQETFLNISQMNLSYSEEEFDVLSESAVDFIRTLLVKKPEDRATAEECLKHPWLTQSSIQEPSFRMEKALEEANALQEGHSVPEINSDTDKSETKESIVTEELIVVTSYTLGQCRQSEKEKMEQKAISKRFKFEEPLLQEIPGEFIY

[7] = target: Protein kinase C beta type (Homo sapiens) (UniProt P05771); assay: Inhibition of PKCbetall (unknown origin) at 1 uM in presence of ATP relative to control; values are per cent of control
[8] = target: Dual specificity mitogen-activated protein kinase kinase 6 (Homo sapiens) (UniProt P52564); assay: Inhibition of MKK6 (unknown origin) at 1 uM in presence of ATP relative to control; values are per cent of control
Sequence of Dual specificity mitogen-activated protein kinase kinase 6 (Homo sapiens) (P52564 whole entry): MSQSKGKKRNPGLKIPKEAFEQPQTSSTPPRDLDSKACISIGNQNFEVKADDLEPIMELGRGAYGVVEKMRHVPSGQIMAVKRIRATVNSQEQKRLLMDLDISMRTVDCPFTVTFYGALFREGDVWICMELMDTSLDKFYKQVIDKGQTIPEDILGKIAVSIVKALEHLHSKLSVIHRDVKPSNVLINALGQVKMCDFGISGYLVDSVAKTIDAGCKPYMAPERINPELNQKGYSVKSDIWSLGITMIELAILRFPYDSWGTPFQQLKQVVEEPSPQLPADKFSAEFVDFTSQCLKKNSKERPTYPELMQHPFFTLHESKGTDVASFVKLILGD

[9] = target: Ephrin type-B receptor 1 (Homo sapiens) (UniProt P54762); assay: Inhibition of EphB1 (unknown origin) at 1 uM in presence of ATP relative to control; values are per cent of control
Sequence of Ephrin type-B receptor 1 (Homo sapiens) (P54762 whole entry): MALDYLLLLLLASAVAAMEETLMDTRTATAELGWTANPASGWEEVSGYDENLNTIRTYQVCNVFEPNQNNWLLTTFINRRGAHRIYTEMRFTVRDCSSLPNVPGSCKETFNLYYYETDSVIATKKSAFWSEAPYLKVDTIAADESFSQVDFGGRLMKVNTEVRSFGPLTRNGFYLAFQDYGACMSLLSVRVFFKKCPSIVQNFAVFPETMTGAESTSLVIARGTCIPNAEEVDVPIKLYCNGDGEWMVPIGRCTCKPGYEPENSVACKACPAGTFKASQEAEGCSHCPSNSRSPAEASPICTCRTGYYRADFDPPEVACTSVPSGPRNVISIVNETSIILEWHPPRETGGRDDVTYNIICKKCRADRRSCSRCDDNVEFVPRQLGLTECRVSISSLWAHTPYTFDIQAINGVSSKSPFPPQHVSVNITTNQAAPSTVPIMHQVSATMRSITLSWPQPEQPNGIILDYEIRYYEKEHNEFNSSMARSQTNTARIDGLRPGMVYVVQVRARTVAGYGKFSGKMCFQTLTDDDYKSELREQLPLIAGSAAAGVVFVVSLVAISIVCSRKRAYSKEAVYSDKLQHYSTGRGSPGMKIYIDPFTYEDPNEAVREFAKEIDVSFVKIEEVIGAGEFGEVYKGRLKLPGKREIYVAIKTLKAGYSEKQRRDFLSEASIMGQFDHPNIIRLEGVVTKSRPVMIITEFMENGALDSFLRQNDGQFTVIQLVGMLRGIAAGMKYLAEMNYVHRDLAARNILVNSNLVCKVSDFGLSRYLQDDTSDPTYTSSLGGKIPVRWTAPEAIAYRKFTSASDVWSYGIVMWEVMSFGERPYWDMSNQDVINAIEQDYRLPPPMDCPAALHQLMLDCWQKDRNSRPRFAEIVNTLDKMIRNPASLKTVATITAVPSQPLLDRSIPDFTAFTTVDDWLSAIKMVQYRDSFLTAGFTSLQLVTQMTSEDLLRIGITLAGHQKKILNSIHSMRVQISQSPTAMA

[10] = target: Tyrosine-protein kinase ZAP-70 (Homo sapiens) (UniProt P43403); assay: Inhibition of ZAP-70 (unknown origin) at 1 uM in presence of ATP relative to control; values are per cent of control
Sequence of Tyrosine-protein kinase ZAP-70 (Homo sapiens) (P43403 whole entry): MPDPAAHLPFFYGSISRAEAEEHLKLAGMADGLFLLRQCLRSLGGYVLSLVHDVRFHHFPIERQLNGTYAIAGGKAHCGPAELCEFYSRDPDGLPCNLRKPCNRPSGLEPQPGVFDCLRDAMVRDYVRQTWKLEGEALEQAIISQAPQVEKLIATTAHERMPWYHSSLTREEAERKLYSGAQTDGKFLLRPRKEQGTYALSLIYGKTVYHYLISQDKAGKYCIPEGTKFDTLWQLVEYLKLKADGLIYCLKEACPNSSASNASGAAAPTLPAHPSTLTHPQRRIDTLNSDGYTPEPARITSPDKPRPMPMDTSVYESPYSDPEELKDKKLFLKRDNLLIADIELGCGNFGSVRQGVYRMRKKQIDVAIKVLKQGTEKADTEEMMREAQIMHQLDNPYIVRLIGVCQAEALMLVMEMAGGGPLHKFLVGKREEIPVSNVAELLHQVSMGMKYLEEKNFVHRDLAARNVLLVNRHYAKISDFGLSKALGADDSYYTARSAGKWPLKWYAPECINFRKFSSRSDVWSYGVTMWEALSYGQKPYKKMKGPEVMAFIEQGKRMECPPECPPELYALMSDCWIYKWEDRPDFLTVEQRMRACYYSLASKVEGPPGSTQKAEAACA

[11] = target: Serine/threonine-protein kinase 4 (Homo sapiens) (UniProt Q13043); assay: Inhibition of MST1 (unknown origin) at 1 uM in presence of ATP relative to control; values are per cent of control
[12] = target: Ephrin type-A receptor 1 (Homo sapiens) (UniProt P21709); assay: Inhibition of EphA1 (unknown origin) at 1 uM in presence of ATP relative to control; values are per cent of control
[13] = target: Death-associated protein kinase 2 (Homo sapiens) (UniProt Q9UIK4); assay: Inhibition of DAPK2 (unknown origin) at 1 uM in presence of ATP relative to control; values are per cent of control
[14] = Cmax in adult patient with recurrent LMNA-NTRK1 rearranged colorectal cancer at 100 mg administered twice a day as powder-in-capsule or liquid formulation for 15 days by LC-MS/MS analysis; assay type: ADME; details: human, in vivo, po, time 15 day
TPC1 = assay: Inhibition of cell proliferation in human TPC1 cells upto 10 umol/L incubated for 72 hrs by DAPI staining based analysis; assay type: functional; details: dose <= 10.0 µmol/L
[15] = target: Serine/threonine-protein kinase PLK1 (Homo sapiens) (UniProt P53350); assay: Inhibition of Plk1 (unknown origin) at 1 uM in presence of ATP relative to control; values are per cent of control
D283 Med = assay: Inhibition of cell proliferation in human D283 Med cells upto 10 umol/L incubated for 72 hrs by DAPI staining based analysis; assay type: functional; details: dose <= 10.0 µmol/L
[16] = target: Serine/threonine-protein kinase Nek6 (Homo sapiens) (UniProt Q9HC98); assay: Inhibition of NEK6 (unknown origin) at 1 uM in presence of ATP relative to control; values are per cent of control
[17] = Inhibition of N-terminal 3FLAG-tagged ETV6-TRKC G696A mutant (unknown origin) expressed in NIH3T3 cells assessed as ERK1/2 phosphorylation incubated for 1 hrs by flow cytometric analysis; assay type: cell-based, Homo sapiens
[18] = target: Tyrosine-protein kinase CSK (Homo sapiens) (UniProt P41240); assay: Inhibition of CSK (unknown origin) at 1 uM in presence of ATP relative to control; values are per cent of control
[19] = AUC in adult patient with recurrent LMNA-NTRK1 rearranged colorectal cancer at 100 mg administered twice a day as powder-in-capsule or liquid formulation for 22 day by LC-MS/MS analysis; assay type: ADME; details: human, in vivo, po
[20] = target: Mitogen-activated protein kinase 10 (Homo sapiens) (UniProt P53779); assay: Inhibition of JNK3 (unknown origin) at 1 uM in presence of ATP relative to control; values are per cent of control
[21] = target: Calcium/calmodulin-dependent protein kinase type 1 (Homo sapiens) (UniProt Q14012); assay: Inhibition of CAMK1 (unknown origin) at 1 uM in presence of ATP relative to control; values are per cent of control
Sequence of Calcium/calmodulin-dependent protein kinase type 1 (Homo sapiens) (Q14012 whole entry, looked up): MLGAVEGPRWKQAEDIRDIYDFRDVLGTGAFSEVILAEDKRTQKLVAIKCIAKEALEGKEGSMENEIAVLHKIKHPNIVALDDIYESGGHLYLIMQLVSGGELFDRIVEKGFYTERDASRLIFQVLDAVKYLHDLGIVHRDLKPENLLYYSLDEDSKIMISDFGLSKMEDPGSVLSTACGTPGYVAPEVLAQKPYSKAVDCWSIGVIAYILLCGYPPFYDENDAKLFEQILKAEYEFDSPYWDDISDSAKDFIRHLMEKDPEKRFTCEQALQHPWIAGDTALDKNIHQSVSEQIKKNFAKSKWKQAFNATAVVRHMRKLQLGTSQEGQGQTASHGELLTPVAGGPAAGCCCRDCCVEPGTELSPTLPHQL

CAL-62 = assay: Inhibition of cell proliferation in human CAL-62 cells upto 10 umol/L incubated for 72 hrs by DAPI staining based analysis; assay type: functional; details: dose <= 10.0 µmol/L
[22] = Clearance in mouse at 1 mg/kg, iv administered as 20% hydroxypropyl-beta-cyclodextrin formulation by LC-MS analysis; assay type: ADME, organism-based; details: in vivo
[23] = AUC in pediatric patient with recurrent ETV6-NTRK3-rearranged infantile fibrosarcoma at 100 mg administered twice a day as liquid formulation for 29 day by LC-MS/MS analysis; assay type: ADME; details: human, in vivo
[24] = target: Calcium/calmodulin-dependent protein kinase type 1D (Homo sapiens) (UniProt Q8IU85); assay: Inhibition of CAMK1d (unknown origin) at 1 uM in presence of ATP relative to control; values are per cent of control
Sequence of Calcium/calmodulin-dependent protein kinase type 1D (Homo sapiens) (Q8IU85 whole entry, looked up): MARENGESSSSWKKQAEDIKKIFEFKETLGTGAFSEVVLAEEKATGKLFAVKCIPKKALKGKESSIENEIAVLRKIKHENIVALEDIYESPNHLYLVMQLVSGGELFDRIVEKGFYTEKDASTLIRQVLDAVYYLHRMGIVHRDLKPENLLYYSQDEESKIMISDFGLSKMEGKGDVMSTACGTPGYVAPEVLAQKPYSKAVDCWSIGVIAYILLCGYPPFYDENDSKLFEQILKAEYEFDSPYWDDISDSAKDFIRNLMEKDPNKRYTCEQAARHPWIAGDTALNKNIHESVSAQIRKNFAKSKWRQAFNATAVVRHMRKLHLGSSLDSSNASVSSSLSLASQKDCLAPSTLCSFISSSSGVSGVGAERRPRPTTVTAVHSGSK

T-24 = assay: Inhibition of cell proliferation in human T24 cells upto 10 umol/L incubated for 72 hrs by DAPI staining based analysis; assay type: functional; details: dose <= 10.0 µmol/L

## C[C@@H]1CCc2ncc(F)cc2[C@H]2CCCN2c2ccn3ncc(c3n2)C(=O)N1 [SELITRECTINIB]
BT-549
  inhibition: inactive
[1]
  residual activity: 108%
[2]
  residual activity: 104%
[3]
  residual activity: 106%
[4]
  residual activity: 104%
[5]
  residual activity: 112%
[6]
  residual activity: 113%
[7]
  residual activity: 90.5%
[8]
  residual activity: 100%
[9]
  residual activity: 112%
[10]
  residual activity: 118%
[11]
  residual activity: 95.5%
[12]
  residual activity: 74%
[13]
  residual activity: 94%
[14]
  Cmax: 673 ng/mL
TPC1
  inhibition: inactive
[15]
  residual activity: 104%
D283 Med
  inhibition: inactive
[16]
  residual activity: 116%
[17]
  IC50: 17.5 nM
[18]
  residual activity: 112%
[19]
  AUC at 528 h: 3870 ng·h/mL
[20]
  residual activity: 109%
[21]
  residual activity: 107%
CAL-62
  inhibition: inactive
[22]
  clearance: 4.83 mL/min/kg
[23]
  AUC at 696 h: 4410 ng·h/mL
[24]
  residual activity: 116%
T-24
  inhibition: inactive
